The subject of assay [1] is Cln2^R207X mice. The experiment in a line: Tremor index score on force plate actimeter in Cln2^R207X mice. The class given is in vivo, mouse. As to conditions: for tremor index score: 10 weeks of age. The procedure:
(§1) Specific experimental details are included in figure legends. In general, after collection and preparation, MEFs and PNCs were dosed with vehicle or AF38469 (40 nM, 400 nM. or 4 μM) on DIV3 and DIV5. On DIV7, cells were treated with the following dyes: Hoechst 33342 (1:1000 dilution), LysoTrackerT™ Red DND-99 (1:10,000 dilution), fixed, and imaged. Mice were given vehicle or AF38469 (78.125 μg/ml, 3.125 μg/ml, 0.3125 μg/ml or 0.03125 μg/ml equating approximately to 250 μg/mouse/day, 10 μg/mouse/day, 1 μg/mouse/day, and […], respectively, given a mouse's daily water intake of approximately 3.2 ml per day) in drinking water beginning at wean. Body weight was measured bi-weekly, and a force actimeter test was performed on Cln2^R207X mice at 10 weeks of age. Body weight was measured every month for Cln3^Δex7/8 mice. At 11 and 16 weeks of age, respectively, Cln2^R207X and Cln3^Δex7/8 mice along with age matched wild type control mice were CO2 euthanized and intracardially perfused with PBS. Brains were collected and placed on a 1 mm sagittal brain block. Brains were sliced at the midline and 3 mm right of the midline. One hemisphere was fixed in 4% PFA and sectioned at 50 microns on a vibratome. Immunohistochemistry was performed on free-floating sections. For mitochondrial ATP synthase subunit C (SubC), glial fibrillary acidic protein (GFAP), and cluster of differentiation 68 (CD68) immunolabeling, primary antibodies included anti-SubC (Abcam, ab181243; 1:1000), anti-GFAP (Dako, Z0334; 1:5000), anti-CD68 (AbD Serotec, MCA1957; 1:2000), and secondary antibodies included anti-rabbit biotinylated (Vector Labs, BA-1000 1:1000) and anti-rat (Vector Labs, BA-9400 1:1000). Coverslips were mounted on slides using antifade-mounting media and were stored in the dark before imaging. Sections were imaged and analyzed using an Aperio Digital Pathology Slide Scanner (AT2) and associated software. Images were extracted from S1BF of the somatosensory cortex and the VPM/VPL of the thalamus, with multiple images taken of multiple tissues from each animal.
Short-term chronic treatment with AF38469 reduced tremor phenotype in Cln2^R207X mice. Beginning at wean, wild type and Cln2^R207X mice were treated with vehicle (0.2408% DMSO) or AF38469 (0.03125 μg/ml, 0.3125 μg/ml, 3.125 μg/ml, 78.125 μg/ml) continuously through the drinking water. At 10 weeks of age, wild type and Cln2^R207X mice were evaluated on the force plate actimeter. Evaluation of tremors with the force plate actimeter software produces a tremor index score based on the tremor frequency 5-10 Hz (A), 10-15 Hz (B), 15-20 Hz (C) and 20-25 Hz (D). Data was analyzed with Graphpad. Two-way ANOVA. Mean±S.E.M. Dunnett's multiple comparisons test. *p<0.05, **p<0.01, ***p<0.001, ****p<0.0001. […]

The test system of assay [2] is TFEB target genes. The experiment in a line: Comparative transcriptomic analysis (RNA sequencing, DEGs) in wild type MEFs. The class given is cell-based, mouse. As to conditions: 40 nM, dosed DIV3, RNA isolation DIV5. How it is done: Comparative transcriptomic analysis of differentially expressed genes in AF38469 treated and vehicle treated wild type mouse embryonic fibroblasts. Wild type mouse embryonic fibroblasts were treated with vehicle or AF38469 (40 nM). Cells were plated on in vitro day 0, and cells were dosed with drug-containing media on DIV3, collection and RNA isolation occurred on DIV5. RNA sequencing and differentially expressed gene (DEG) analysis was performed with Novogene. DEGs were compared to lists of lysosomal genes and genes under TFEB regulation.

The subject of assay [3] is Cln2^R207X mice. The experiment in a line: Microglial activation (CD68) in brain of Cln2^R207X mice. Type of assay: in vivo, mouse. How it is done: as §1
Short-term chronic treatment with AF38469 impacts glial activation in Cln2^R207X mice. Beginning at wean, wild type and Cln2^R207X mice were treated with vehicle (0.2408% DMSO) or AF38469 (0.03125 μg/ml, 0.3125 μg/ml, 3.125 μg/ml, 78.125 μg/ml) continuously through the drinking water continuing until sacrifice at 11 weeks. […] Sections were imaged and analyzed using an Aperio Digital Pathology Slide Scanner (AT2) and associated software. […] Percent area of immunoreactivity were quantified using a threshold analysis in ImageJ™. […]

The test system of assay [4] is Cathepsin D. The experiment in a line: Cathepsin D enzyme in MEF lysates. Type of assay: cell-based, mouse. The procedure: Since LM11A-31 stimulates the nuclear translocation of transcription factors responsible for lysosome biogenesis, we asked whether LM11A-31 increases the overall activity levels of lysosomalenzymes in cellulo. […] Wild type (WT) and mutant cells were treated with vehicle or LM11A-31 (100 nM). Cells were plated on day 0 and dosed with drug-containing media on DIV3 and DIV5. Cells were lysed, and protein quantification and enzyme activity assay were performed on DIV7. Data was analyzed with GraphPad Prism™. Two-way ANOVA. Mean±S.E.M. Tukey's multiple comparisons test. *p<0.05, **p<0.01, ***p<0.001, ****p<0.0001. […] Palmitoyl-protein thioesterase 1 (PPT1) is the lysosomal enzyme mutated in CLN1 disease and removes thioester-linked fatty acyl groups from modified cysteines of substrate proteins. Tripeptidyl peptidase 1 (TPP1) is the lysosomal enzyme mutated in CLN2 disease and has broad substrate specificity against various proteins degraded in the lysosome after cleavage. Mutations in the CTSD gene, encoding cathepsin d, a lysosomal protease that is involved in the recycling and degradation, is a known cause of Cln10 disease.

“Also recorded” adds a separate entry of the source.

Turning to `Cc1cccc(NC(=O)c2ccc(C(F)(F)F)cc2C(=O)O)n1` [AF38469, 2-((6-methylpyridin-2-yl)carbamoyl)-5-(trifluoromethyl)benzoic acid], the tremor index score entry in assay [1] (5-10 Hz, vs vehicle Cln2^R207X) was “had no impact”; in assay [1] (10-15 Hz, 0.3125 μg/ml) it was “significantly reduced”; in assay [1] (15-20 Hz and 20-25 Hz, 0.03125 μg/ml, 0.3125 μg/ml, 3.125 μg/ml), “significantly reduced”. In addition, in assay [1] (lower concentrations, summary statement), the tremor index scores result was “significantly reduce”. Besides, the “all lysosomal differentially expressed genes or lysosomal genes not regulated by TFEB” value in assay [2] is given as “no distinct pattern of up or down regulation”. Besides, the “expression of TFEB target genes” value in assay [2] was “stimulated increased expression; also recorded: stimulates; also recorded: distinct pattern of upregulation”. Also, the “microglial activation (CD68)” value was “did not significantly impact” in assay [3] (3.125 μg/ml, 78.125 μg/ml, somatosensory cortex); “significantly increased” in assay [3] (78.125 μg/ml, VPM/VPL of the thalamus); “significantly and potently decreased” in assay [3] (lower doses 0.03125 μg/ml, 0.3125 μg/ml, somatosensory cortex). Further, the CD68 reactivity entry in assay [3] (higher doses, summary statement) is listed as “increased or had no impact”.

With `CC[C@H](C)[C@H](N)C(=O)NCCN1CCOCC1` [LM11A-31, N-[2-(morpholin-4-yl)ethyl]-L-isoleucinamide], the “levels of Cathepsin D” value in assay [4] (LM11A-31 100 nM, Cln2^R207X and Cln3^Δex7/8 MEFs, DIV7) is given as “significantly decreased”. Besides, the “overall levels of activity for Cathepsin D enzyme in cell lysates” value in assay [4] (LM11A-31, overall statement (FIG. 15B)) is “increased the overall levels of activity”.
